Measured values as given in patent US20260356841A1, “HETEROCYCLIC PYRIDINONE COMPOUNDS AS TRIGGERING RECEPTOR EXPRESSED ON MYELOID CELLS 2 AGONISTS AND METHODS OF USE” (Vigil Neuroscience, Inc., priority 2023, published 2026).
pEC50: −log10 of the molar value.

target: T1, human TREM2 (Homo sapiens, UniProt Q9NZC2); experiment: TREM2 agonist potency by cellular phosphorylation of Spleen Tyrosine Kinase (Syk), AlphaLisa, HEK293T-hTREM2 cells; type: cell-based; conditions: hTREM2 EC50 Data (HEK293 Cells); Syk phosphorylation, AlphaLisa; read-out: hTREM2 EC50
T1 construct: expressed in transfected cells; host or cells: HEK293T (HEK293T-hTREM2 cells)
How it was run: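 HEK293T cells co-expressing human TREM2 and DAP12, plated 20–24 h before use. Compounds applied 45 min at room temperature in assay buffer, then cells lysed and phospho-Syk quantified by AlphaLisa. Percent activation from a standard curve; EC50 from a four-parameter variable-slope fit.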

T1 sequence (Q9NZC2 19-230): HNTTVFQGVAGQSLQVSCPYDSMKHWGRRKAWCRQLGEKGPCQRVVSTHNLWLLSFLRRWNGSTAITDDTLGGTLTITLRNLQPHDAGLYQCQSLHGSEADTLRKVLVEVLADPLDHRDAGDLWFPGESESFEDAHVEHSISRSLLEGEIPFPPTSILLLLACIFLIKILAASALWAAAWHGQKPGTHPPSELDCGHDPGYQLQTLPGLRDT
T1 sequence (O43914 22-113 partner): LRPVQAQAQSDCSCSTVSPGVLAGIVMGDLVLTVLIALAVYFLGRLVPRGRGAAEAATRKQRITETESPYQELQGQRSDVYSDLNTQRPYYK

**Q.** `Cc1nc2nc([C@H]3CCO[C@@H](c4ccc(=O)n(NCC(F)F)c4)C3)nc(C34CC(C(F)(F)F)(C3)C4)c2nc1C` [Example 214, 1-((2,2-difluoroethyl)amino)-5-((2R,4S)-4-(6,7-dimethyl-4-(3-(trifluoromethyl)bicyclo[1.1.1]pentan-1-yl)pteridin-2-yl)tetrahydro-2H-pyran-2-yl)pyridin-2(1H)-one] was tested. Which pEC50 did it give?
**A.** Its pEC50 is greater than 7.00.

**Q.** How did the pEC50 turn out when `Cc1nc2nc([C@H]3CCO[C@@H](c4ccc(=O)n(N5CC6C(C5)C6(F)F)c4)C3)nc(C34CC(C(F)(F)F)(C3)C4)c2nc1C` (stereo partly drawn) [Example 215, 1-(6,6-difluoro-3-azabicyclo[3.1.0]hexan-3-yl)-5-[(2R,4S)-4-[6,7-dimethyl-4-[3-(trifluoromethyl)-1-bicyclo[1.1.1]pentanyl]pteridin-2-yl]tetrahydropyran-2-yl]pyridin-2-one] was run?
**A.** The pEC50 was greater than 7.00.

**Q.** How did the pEC50 turn out when `Cc1nc2c(C34CC(C(F)(F)F)(C3)C4)nc(N3C[C@@H](C)O[C@@H](c4ccc(=O)n(C5CC5)c4)C3)nc2c(=O)n1C` [Example 219] was run?
**A.** Its pEC50 is greater than 7.00.

**Q.** With `Cc1cc2c(C34CC(C(F)(F)F)(C3)C4)nc([C@H]3CCO[C@@H](c4ccc(=O)n(C)c4)C3)nc2nc1C` [Example 324] as the molecule, how does the pEC50 read?
**A.** The pEC50 was greater than 7.00.

**Q.** How did the pEC50 turn out when `Cc1nc2nc([C@H]3CCO[C@@H](c4ccc(=O)n(C)c4)C3)nc(C34CC(C(F)(F)F)(C3)C4)c2cc1C(F)(F)F` [Example 326, 1-methyl-5-[(2R,4S)-4-[7-methyl-6-(trifluoromethyl)-4-[3-(trifluoromethyl)-1-bicyclo[1.1.1]pentanyl]pyrido[2,3-d]pyrimidin-2-yl]tetrahydropyran-2-yl]pyridin-2-one] was run?
**A.** Its pEC50 is greater than 7.00.

**Q.** How did the pEC50 turn out when `Cc1nc2nc([C@H]3CCO[C@@H](c4ccc(=O)n(C5CC5)c4)C3)nc(C34CC(C(F)(F)F)(C3)C4)c2cc1C(F)(F)F` [Example 328, 1-cyclopropyl-5-((2R,4S)-4-(7-methyl-6-(trifluoromethyl)-4-(3-(trifluoromethyl)bicyclo[1.1.1]-pentan-1-yl)pyrido[2,3-d]pyrimidin-2-yl)tetrahydro-2H-pyran-2-yl)pyridin-2(1H)-one] was run?
**A.** Its pEC50 is greater than 7.00.

**Q.** With `Cc1nc2nc([C@H]3CCO[C@@H](c4ccc(=O)[nH]c4)C3)nc(C34CC(C(F)(F)F)(C3)C4)c2cc1C(F)(F)F` [Example 330, 5-((2R,4S)-4-(7-methyl-6-(trifluoromethyl)-4-(3-(trifluoromethyl)bicyclo[1.1.1]pentan-1-yl)pyrido[2,3-d]pyrimidin-2-yl)tetrahydro-2H-pyran-2-yl)pyridin-2(1H)-one] as the molecule, how does the pEC50 read?
**A.** Its pEC50 is greater than 7.00.

**Q.** With `Cc1nc2nc([C@H]3CCO[C@@H](c4ccc(=O)n(N)c4)C3)nc(C34CC(C(F)(F)F)(C3)C4)c2cc1C(F)(F)F` [Example 332, 1-amino-5-((2R,4S)-4-(7-methyl-6-(trifluoromethyl)-4-(3-(trifluoromethyl)bicyclo[1.1.1]pentan-1-yl)pyrido[2,3-d]pyrimidin-2-yl)tetrahydro-2H-pyran-2-yl)pyridin-2 (1H)-one] as the molecule, how does the pEC50 read?
**A.** Its pEC50 is greater than 7.00.

**Q.** `[2H]C([2H])([2H])n1cc([C@H]2C[C@@H](c3nc(C45CC(C(F)(F)F)(C4)C5)c4cc(C(F)(F)F)c(C)nc4n3)CCO2)ccc1=O` [Example 334, 1-(methyl-d3)-5-((2R,4S)-4-(7-methyl-6-(trifluoromethyl)-4-(3-(trifluoromethyl)bicyclo[1.1.1]pentan-1-yl)pyrido[2,3-d]pyrimidin-2-yl)tetrahydro-2H-pyran-2-yl)pyridin-2(1H)-one] was tested. Which pEC50 did it give?
**A.** The pEC50 was greater than 7.00.

**Q.** `Cc1nc2nc([C@H]3CCO[C@@H](c4ccc(=O)n(N(C)C)c4)C3)nc(C34CC(C(F)(F)F)(C3)C4)c2cc1C(F)(F)F` [Example 336, 1-(dimethylamino)-5-((2R,4S)-4-(7-methyl-6-(trifluoromethyl)-4-(3-(trifluoromethyl)bicyclo-[1.1.1]pentan-1-yl)pyrido[2,3-d]pyrimidin-2-yl)tetrahydro-2H-pyran-2-yl)pyridin-2 (1H)-one] was tested. Which pEC50 did it give?
**A.** Its pEC50 is greater than 7.00.
